From patent US5004565A, “Method and compositions providing enhanced chemiluminescence from 1,2-dioxetanes” (priority 1988, dated 1991)
Structures can show the parent of a compound that is named as a salt.

Legend:
[1] = assay type: physicochemical; conditions: for t1/2 at 25° C.: table; for t1/2 at 25° C. / k at 25° C.: thermal decomposition in xylene
Description: Rates for thermal decomposition of the stable dioxetanes were monitored by the decay of chemiluminescence of aerated solutions. A cylindrical Pyrex vial equipped with magnetic stir bar was filled with 3-4 mL of the reaction solvent, sealed with a Teflon-lined screw cap and placed in the thermostatted sample block of the chemiluminescence-measuring luminometer. Temperature control was provided by an external circulating water bath. Appropriate values for the instrument gain and optical slit size were selected. […]. The vial was sealed with a Teflon-lined screw cap to prevent evaporation when high temperatures were used. Measurement of the signal was begun by opening the shutter. The chemiluminescent decay was generally recorded for at least three half-lives. Calculation of the first-order rate constant (k) from the In (Intensity) vs. time data was performed by a computer program utilizing a standard least-squares treatment. The correlation coefficient (r) was typically at least 0.999 and k varied less than 5% between replicate samples.
Activation parameters for decomposition of the dioxetanes were calculated from plots of In k vs. 1/T (Arrhenius eq.) or In k/t vs. 1/T (Eyring eq.) by a standard least-squares linear regression analysis.

[2] = Base-triggered chemiluminescence in DMSO or water; conditions: 10^-4 M, DMSO, excess tetra-n-butylammonium hydroxide
urease = assay: Triggering of 2a with urease in the presence of fluorescent micelles; assay type: biochemical; conditions: 10 μL of 3×10^-3 M 2a, CTAB, fluorescein surfactant 3, urea
Description: 5. Enzymatic Triggering of Hydroxy-Substituted Dioxetane 2a with Urease in the Presence of Fluorescent Micelles. A solution was prepared using 160 mg of CTAB and 12.4 mg of fluorescein surfactant 3 in 200 mL of distilled water. A urea solution was made by dissolving 200 mg of urea in 100 mL of distilled water with EDTA added to give a final concentration of 0.4 mM. The substrate solution for the urease experiments was obtained by mixing 10mL of each stock solution.
Experiments were carried out with urease (Sigma) by incubation at room temperature for periods of 0.5 to 2 hours. […] The intensity of the luminescence provided a measure of the concentration of urease.

[3] = tested on: alkaline phosphatase from bovine intestinal mucosa; assay: Triggering of xanthenone phosphate dioxetane with alkaline phosphatase from bovine intestinal mucosa; assay type: biochemical; conditions: 4.2×10^-6 M dioxetane, 1.8 μg/mL protein, pH 10.3, 37° C.
Description: Triggering experiments were conducted using alkaline phosphatase from bovine intestinal mucosa [suspension of 5.3 mg of protein (1100 units/mg protein) per mL in 3.2 M (NH4)2 SO4 ] and the phosphate-protected dioxetane at pH 10.3 in 0.75 M 2-amino-2-methyl- 1-propanol buffer. […]. The rate of decay of the emission is a function of enzyme concentration while the total light emission is independent of the enzyme concentration because of turnover of the enzyme.

[4] = tested on: Alkaline Phosphatase from Human Blood Serum; assay: Triggering of 2c with alkaline phosphatase from human blood serum; assay type: biochemical; conditions: 10^-5 M 2c, 100 μL serum, pH 10.3, 37° C.
Description: 1. Triggering the Chemiluminescence of 2c with Alkaline Phosphatase from Human Blood Serum. A stock solution of dioxetane 2c was prepared in dioxane/water (1:1 v/v) by photooxygenation of 1c. A sample of fresh blood was drawn from a healthy donor and the red blood cells removed by centrifugation to provide serum for the experiments. Treatment of 3 mL of a 10^-5 M solution of 2c in 0.75 M 2-amino-2-methyl-1-propanol (221) buffer (pH 10.3) at 37° C. with 100 μL of serum led to the typical intensity vs. time profile shown in FIG. 3 where the serum is injected at time zero. Under these conditions the light intensity reaches a constant level of approximately 2.3×10^4 counts/sec. The background luminescence signal from non-enzymatic hydrolysis of 2c is less than 0.05% of the enzyme-generated value.

[5] = tested on: alkaline phosphatase from bovine intestinal mucosa; assay: Triggering of 2c with alkaline phosphatase from bovine intestinal mucosa; assay type: biochemical
From the text: The chemiluminescence quantum yield (.PHI.CL) for the decomposition of dioxetanes is defined as the ratio of einsteins of chemiluminescence emitted to moles of dioxetane decomposed. Sufficient energy is released during the reaction from the reaction enthalpy (ΔHR) plus the Arrhenius activation energy (Ea) to populate the singlet excited state of one of the carbonyl cleavage products. Therefore, the maximum quantum yield is 1.0. Another parameter of interest is the chemiexcitation quantum yield (.PHI.CE) which is defined as the ratio of excited states formed to dioxetane decomposed.
The same procedure as those employed in the measurement of the decay kinetics was used for the determination of chemiluminescence quantum yields with the following modifications. An accurately measured aliquot of a dioxetane stock solution of known concentration was added to 3 mL of the pre-thermostatted organic solvent or aqueous buffer. The reaction was then triggered by adding the appropriate chemical reagent or enzyme. […]
Enzymatic triggering experiments such as those described above were also carried out in Immumlon™ microtitre wells from Dynatech, Inc. made of transparent polystyrene. […] The chemiluminescence was detected at the bottom of the well using a fiber optic connected to the photon-counting luminometer described previously. […]

firefly luciferase = firefly luciferase system; cited from earlier work

COC1(c2cccc(O)c2)OOC12C1CC3CC(C1)CC2C3 (stereo not drawn) [dioxetane 2a, 4-(3-Hydroxyphenyl)-4-methoxyspiro[1,2-dioxetane-3,2'-adamantane]]
t1/2 at 25° C. [1]: 4.1 yrs | k at 25° C. [1]: 5.38e-09 s⁻¹ | duration of chemiluminescence decay [2]: several minutes | chemiluminescence after incubation with urease (urease): produced chemiluminescence

O=P(O)(O)Oc1ccc2c(c1)Oc1ccccc1C21OOC12C1CC3CC(C1)CC2C3 (stereo not drawn)
duration of chemiluminescence decay [3]: 3 min

COC1(c2cccc(OC(C)=O)c2)OOC12C1CC3CC(C1)CC2C3 (stereo not drawn) [dioxetane 2b]
t1/2 at 25° C. [1]: 13 yrs | k at 25° C. [1]: 1.73e-09 s⁻¹

COC1(c2cccc(OP(=O)(O)O)c2)OOC12C1CC3CC(C1)CC2C3 (stereo not drawn) [dioxetane 2c, 4-Methoxy-4-(3-phosphatephenyl)spiro[1,2-dioxetane-3,2'-adamantane], disodium salt]
t1/2 at 25° C. [1]: 19 yrs | k at 25° C. [1]: 1.19e-09 s⁻¹ | light intensity at plateau [4]: approximately 2.3×10^4 counts/sec | detection of alkaline phosphatase ([5]; 2c, CTAB and 3 in 200 μL 221 buffer, assuming enzyme purity of 10%): less than 0.2 attomoles | period of chemiluminescence ([5]; with CTAB and 3, 12 pg/mL protein): 45 min

CCCCCCCCCCCCCCCC[N+](C)(C)C.[Br-] [CTAB, cetyltrimethylammonium bromide]
inhibition of the catalytic activity of the luciferase (firefly luciferase): complete inhibition

COC1(c2cccc(O[Si](C)(C)C(C)(C)C)c2)OOC12C1CC3CC(C1)CC2C3 (stereo not drawn)
half-life at 25° C. ([1]; General Description dioxetanes): 3.8 years | decomposition on standing ([1]; o-xylene, laboratory bench, several months): no detectable decomposition
